Calls of active or inactive are those of the source. The calls are words filed in the database; no cut-off is given here.
Assays:
[1] = Induction of mitochondria membrane potential loss in human A-431 cells assessed as red fluorescence intensity at 7.5 nM incubated 48 hrs by JC-1 probe based flow cytometry analysis (reference value: 93.83%); type: functional
[2] = Induction of mitochondria membrane potential loss in human A-431 cells assessed as red fluorescence intensity at 15 nM incubated 48 hrs by JC-1 probe based flow cytometry analysis (reference value: 93.83%); type: functional
[3] = test system: HCT-8; assay: Antiproliferative activity against human HCT-8 cells assessed as reduction in cell viability incubated for 72 hrs by MTT assay; type: functional, cell-based; conditions: Homo sapiens, HCT-8, 72 h; read-out: IC50
[4] = test system: H22; assay: Antiproliferative activity against mouse H22 cells assessed as reduction in cell viability incubated for 72 hrs by MTT assay; type: functional, cell-based; conditions: H22, 72 h
[5] = test system: L02; assay: Cytotoxicity against human L02 cells assessed as reduction in cell viability incubated for 72 hrs by MTT assay; type: cell-based; conditions: L02, 72 h
[6] = test system: Bel-7402; assay: Antiproliferative activity against human Bel-7402 cells assessed as reduction in cell viability incubated for 72 hrs by MTT assay; type: functional, cell-based; conditions: Homo sapiens, Bel-7402, 72 h; read-out: IC50
[7] = Resistant index, ratio of IC50 for ADR-resistant human Bel-7402 cells to IC50 for human Bel-7402 cells; type: functional
[8] = test system: HCT-8; assay: Antiproliferative activity against taxol-resistant human HCT-8 cells assessed as reduction in cell viability incubated for 72 hrs by MTT assay; type: functional, cell-based; conditions: Homo sapiens, HCT-8, 72 h; read-out: IC50
[9] = Inhibition of pig brain tubulin polymerisation incubated for 30 mins and measured every 2 mins for 60 mins by spectrophotometric method; type: tissue-based, Sus scrofa
[10] = organism: Sus scrofa; assay: Inhibition of [3H]colchicine binding to biotinylated pig brain tubulin at 1 uM incubated for 2 hrs in presence of GTP by competitive scintillation proximity assay; type: tissue-based
[11] = organism: Sus scrofa; assay: Inhibition of [3H]colchicine binding to biotinylated pig brain tubulin at 5 uM incubated for 2 hrs in presence of GTP by competitive scintillation proximity assay; type: tissue-based
[12] = test system: A-431; assay: Anti-microtubule activity in human A-431 cells assessed as loss of cellular structure at 7.5 to 30 nM incubated for 24 hrs by DAPI staining based confocal microscopic analysis; type: functional, cell-based; conditions: dose 7.5-30 nM
[13] = test system: A-431; assay: Induction of cell cycle arrest in human A-431 cells assessed as accumulation at G2 phase at 7.5 nM after 48 hrs by propidium iodide staining based flow cytometry (reference value: 7.27%); type: functional
[14] = test system: A-431; assay: Induction of cell cycle arrest in human A-431 cells assessed as accumulation at G2 phase at 15 nM after 48 hrs by propidium iodide staining based flow cytometry (reference value: 7.27%); type: functional
[15] = test system: A-431; assay: Induction of cell cycle arrest in human A-431 cells assessed as accumulation at G1 phase at 30 nM after 48 hrs by propidium iodide staining based flow cytometry (reference value: 41.16%); type: functional
[16] = test system: A-431; assay: Cell cycle arrest in human A-431 cells assessed as downregulation of cdc2 expression by Western blot analysis; type: functional, cell-based; conditions: dose 7.5-30 nM
[17] = test system: A-431; assay: Induction of apoptosis in human A-431 cells assessed as viable cells at 7.5 nM after 48 hrs by Annexin-V-APC/PI-staining based flow cytometric analysis (reference value: 93.37%); type: functional; conditions: read-out: Activity
[18] = test system: A-431; assay: Induction of apoptosis in human A-431 cells assessed as necrotic cells at 7.5 nM after 48 hrs by Annexin-V-APC/PI-staining based flow cytometric analysis (reference value: 3.79%); type: functional
[19] = test system: A-431; assay: Induction of apoptosis in human A-431 cells assessed as viable cells at 15 nM after 48 hrs by Annexin-V-APC/PI-staining based flow cytometric analysis (reference value: 93.37%); type: functional; conditions: read-out: Activity
[20] = test system: A-431; assay: Induction of apoptosis in human A-431 cells assessed as early apoptotic cells at 15 nM after 48 hrs by Annexin-V-APC/PI-staining based flow cytometric analysis (reference value: 0.82%); type: functional
[21] = test system: A-431; assay: Induction of apoptosis in human A-431 cells assessed as late apoptotic cells at 15 nM after 48 hrs by Annexin-V-APC/PI-staining based flow cytometric analysis (reference value: 2.02%); type: functional
[22] = test system: A-431; assay: Induction of apoptosis in human A-431 cells assessed as viable cells at 30 nM after 48 hrs by Annexin-V-APC/PI-staining based flow cytometric analysis (reference value: 93.37%); type: functional; conditions: read-out: Activity
[23] = test system: A-431; assay: Induction of apoptosis in human A-431 cells assessed as late apoptotic cells at 30 nM after 48 hrs by Annexin-V-APC/PI-staining based flow cytometric analysis (reference value: 2.02%); type: functional
[24] = test system: A-431; assay: Induction of apoptosis in human A-431 cells assessed as downregulation of Bcl2 protein expression by western blot analysis; type: functional, cell-based; conditions: dose 7.5-30 nM
[25] = test system: A-431; assay: Induction of apoptosis in human A-431 cells assessed as activation of caspase 9 at 7.5 to 30 nM by western blot analysis; type: functional, cell-based; conditions: dose 7.5-30 nM
[26] = test system: A-431; assay: Induction of apoptosis in human A-431 cells assessed as increase in cleaved PARP expression at 7.5 to 30 nM by western blot analysis; type: functional, cell-based; conditions: dose 7.5-30 nM
[27] = Induction of mitochondria membrane potential loss in human A-431 cells assessed as red fluorescence intensity at 30 nM incubated for 48 hrs by JC-1 probe based flow cytometry analysis (reference value: 93.83%); type: functional
[28] = Metabolic stability in rat plasma assessed as parent compound remaining at 100 nM measured after 60 mins by HPLC analysis; type: ADME, cell-free; conditions: 1 h, 0.1 µM
[29] = test system: H22; assay: Antitumor activity against […] xenografted in ICR mouse assessed as reduction of tumor weight at 20 mg/kg/day, iv for 21 days; type: functional; conditions: 504 h, time 21 day
[30] = test system: HUVEC; assay: Antivascular activity in HUVEC assessed as inhibition of capillary like tube formation at 30 nM incubated for 6 hrs by matrigel based inverted fluorescence microscopic analysis; type: functional, cell-based; conditions: Homo sapiens
[31] = test system: H22; assay: Antivascular activity against […] xenografted in ICR mouse assessed as reduction in tumor microvessel density at 20 mg/kg/day, iv administered for 21 days by immunohistochemical staining based analysis; type: functional, organism-based; conditions: time 21.0 day
[32] = test system: H22; assay: Antitumor activity against […] xenografted in ICR mouse assessed as reduction of tumor weight at 10 mg/kg/day, iv for 21 days; type: functional; conditions: 504 h, time 21 day
[33] = test system: K562; assay: cells; conditions: Homo sapiens, K562, 72 h
Description: Antiproliferative activity against human K562 cells assessed as reduction in cell viability incubated for 72 hrs by MTT assay

[34] = test system: A-431; assay: Induction of ROS generation in human A-431 cells incubated for 48 hrs by DCFH-DA dye based flow cytometry; conditions: dose 7.5-30 nM

IC50 [3]: 20 nM
IC50 [6]: 27 nM
IC50 [8]: 106 nM
IC50 [9]: 3030 nM
inhibition [10]: 56.9%
inhibition [11]: 82.9%
Stabilty [28]: Stable
IC50 [33]: 19 nM
Structure (SMILES): COc1ccc(CNC(=O)c2cc(F)ccc2N2CCOCC2)cc1O
Activity [1]: 73.18%
Activity [2]: 54.43%
IC50 [4]: 24 nM
IC50 [5]: 112 nM
Ratio IC50 [7]: 3.9
Activity [12]: Active
Activity [13]: 13.84%
Activity [14]: 16.25%
Activity [15]: 56.41%
Activity [16]: Dose-Dependent Effect
viability at 0.0075 µM [17]: 71%
Activity [18]: 8.23%
viability at 0.015 µM [19]: 45.4%
Activity [20]: 18.35%
Activity [21]: 26.43%
viability at 0.03 µM [22]: 26.5%
Activity [23]: 32.12%
Activity [24]: Dose-Dependent Effect
Activity [25]: Active
Activity [26]: Active
Activity [27]: 33.88%
inhibition in vivo at 20 mg/kg/day [29]: 66%
Activity [30]: Active
Activity [31]: Active
inhibition in vivo at 10 mg/kg/day [32]: 50.3%
Activity [34]: Dose-Dependent Effect

Source: ChEMBL document CHEMBL4813973, “Discovery of novel N-benzylbenzamide derivatives as tubulin polymerization inhibitors with potent antitumor activities” (Eur J Med Chem, 2021)
